From patent US20100099559A1, “Method for protecting soybeans from being infected by fungi” (BASF SE, priority 2007, published 2010) come the findings set out here.

For the test, the system named is Cercospora sojina. In words: Activity against Cercospora sojina, microtiter plate test. Particulars: single active, absorption at 405 nm on day 7 after inoculation, 18° C. Type of test: cell-based. On the procedure:
The expected efficacies of active compound combinations were determined using Colby's formula (Colby, S. R. “Calculating synergistic and antagonistic responses of herbicide combinations”, Weeds, 15, pp. 20-22, 1967) and compared with the observed efficacies. E=x+y−x·y/100 Colby's formula • E expected efficacy, expressed in % of the untreated control, when using the mixture of the active compounds A and B at the concentrations a and b • x efficacy, expressed in % of the untreated control, when using the active compound A at the concentration a • y efficacy, expressed in % of the untreated control, when using the active compound B at the concentration b A solution containing 10 mg a.i. per 1 ml dimethyl sulfoxide is prepared. The stock solution is pipetted onto a microtiter plate (MTP) and diluted with water. In a second step a spore suspension of Cercospora sojina (containing a biomalt-based aqueous nutrient medium) was given to the stated active compound concentration. The plates were placed in a water vapor-saturated chamber at temperatures of 18° C. Using an absorption photometer, the MTPs were measured at 405 nm on day 7 after the inoculation. The measured parameters were compared to the growth of the active compound-free control variant and the fungus- and active compound-free blank value to determine the relative growth in % of the pathogens in the individual active compounds.

For the molecule `Fc1ccc([C@]2(Cn3cncn3)O[C@H]2c2ccccc2Cl)cc1` (racemic) [epoxiconazole, reference compound], the “Observed activity (% infection)” value (concentration 0.063 ppm) turned out to be 0%.
Regarding `Cn1cc(C(=O)Nc2ccccc2[C@@H]2C[C@H]2C2CC2)c(C(F)F)n1` [Compound (Ia), N-(trans-2-bicycloprop-2-ylphenyl)-3-difluoromethyl-1-methyl-1H-pyrazole-4-carboxamide], the “Observed activity (% infection)” value is on record as 0% (concentration 0.016 ppm) and 31% (concentration 0.063 ppm).
